Test results published in US20120244196A1, “PHARMACEUTICAL COMPOSITION CONTAINING MEDICAMENT-CONTAINING FINE PARTICLES AND METHOD FOR PRODUCING SAME” (NITTO DENKO CORPORATION, priority 2009, published 2012).
Values joined by “and” are separate entries in the source; they are usually repeats but may differ in a detail not shown here. Equal entries are not always repeated.

Legend:
[1] = tested on: antibody against OVA in the serum; experiment: mouse immunity experiment, humoral immunity level (ELISA); type: in vivo, mouse (C57BL/6 lineage); conditions: 200 μL intradermal, 62.5 μg/ml egg albumin, 3 injections at one week interval, one week after final injection, N = 2
Method: (§1) 200 μL of small particles of Example 10 (egg albumin concentration 62.5 μg/ml, pH 6.5) or egg albumin solution (egg albumin concentration 62.5 μg/ml, pH 6.5) was intradermally injected to the back of mouse (C57BL/6 lineage). Injection at one week interval was repeated twice, totaling 3 injections. One week after final injection, the humoral immunity level and cellular immunity level of the mouse were evaluated. The humoral immunity level was evaluated by measuring the amount of antibody against OVA in the serum based on the absorbance by ELISA method. The cellular immunity level was evaluated by stimulating the isolated spleen cells with OVA peptide, counting the spot number of the ELISPOT method, and measuring the secreted amount of IFN-y.

[2] = tested on: isolated spleen cells stimulated with OVA peptide; experiment: mouse immunity experiment, cellular immunity level (ELISPOT); type: in vivo, mouse (C57BL/6 lineage); conditions: 200 μL intradermal, 62.5 μg/ml egg albumin, 3 injections at one week interval, one week after final injection, N = 2
Method: as §1

Substance: OVA solution: egg albumin solution (egg albumin concentration 62.5 μg/ml, pH 6.5), control in mouse immunity experiment
- humoral immunity level of serum (absorbance at 450 nm by ELISA analysis), average [1]: 0.32
- humoral immunity level of serum (absorbance at 450 nm by ELISA analysis), individual mice [1]: 0.23 and 0.40
- cellular immunity level of spleen cell (SPOT number of ELISPOT analysis), average [2]: 62
- cellular immunity level of spleen cell (SPOT number of ELISPOT analysis), individual mice [2]: 77 and 46
